Experiments:
CthTpt1 [1] = molecular target: T1, CthTpt1 (Acetivibrio thermocellus, UniProt A3DJX6); assay: X-ray crystal structure, […] Å; format: binding; conditions: acquired during production in E. coli, pH 6.0
T1 construct: gene kptA; 182-aa polypeptide, His6-tagged, recombinant from E. coli; Leu3-Glu182 modelled; one protomer in the asymmetric unit

RslTpt1 = molecular target: T2, RslTpt1 (Runella slithyformis, UniProt A0A7U3ZK32, H99A/T101A); assay: RNA […]'-phosphotransferase assay, […]-labelled 6-mer RNA, urea-PAGE; format: biochemical; conditions: 1 mM NAD+, 0.2 µM 2'-PO4 6-mer RNA, 0.01 µM enzyme, 30 min, pH 7.5, 37 °C
T2 construct: gene kptA; His6-tagged, recombinant from E. coli, Ni-NTA and gel filtration

CthTpt1 [2] = molecular target: T3, CthTpt1 (Acetivibrio thermocellus, UniProt A3DJX6, C46S); assay: X-ray crystal structure, […] Å; format: binding; conditions: NAD+ site; CoA absent from RNA lobe; acquired during production in E. coli; pH 8.5
T3 construct: gene kptA; 182-aa polypeptide, His6-tagged, recombinant from E. coli; Leu3-Glu182 modelled; one protomer in the asymmetric unit
T3 sequence (A3DJX6 whole entry C46S): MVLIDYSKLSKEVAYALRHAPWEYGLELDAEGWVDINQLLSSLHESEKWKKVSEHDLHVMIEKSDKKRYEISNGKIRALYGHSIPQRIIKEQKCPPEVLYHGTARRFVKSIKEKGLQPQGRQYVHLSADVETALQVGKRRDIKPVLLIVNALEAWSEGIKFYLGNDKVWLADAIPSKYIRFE

T1 sequence (A3DJX6 whole entry): as the sequence (A3DJX6 whole entry C46S) above, with S46C counted along it
T2 sequence (A0A7U3ZK32 entry or part of it H99A/T101A): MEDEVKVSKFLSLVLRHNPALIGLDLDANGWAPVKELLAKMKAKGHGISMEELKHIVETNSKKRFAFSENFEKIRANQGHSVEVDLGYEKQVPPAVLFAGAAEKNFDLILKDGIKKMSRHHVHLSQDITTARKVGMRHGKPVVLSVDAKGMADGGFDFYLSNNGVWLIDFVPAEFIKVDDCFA

Compound: CC(C)(COP(=O)(O)OP(=O)(O)OC[C@H]1O[C@@H](n2cnc3c(N)ncnc32)[C@H](O)[C@@H]1OP(=O)(O)O)[C@@H](O)C(=O)NCCC(=O)NCCS [coenzyme A]
- X-ray crystal structure, 1.4 Å (CthTpt1 [1]; covalent (disulfide to Cys46), pAp moiety in RNA site (N-terminal lobe), ADP-ribose-1″-phosphate also bound): The molecule associated with the N-terminal lobe was convincingly modeled as coenzyme A (CoA)

Compound: NC(=O)c1ccc[n+]([C@@H]2O[C@H](COP(=O)([O-])OP(=O)(O)OC[C@H]3O[C@@H](n4cnc5c(N)ncnc54)[C@H](O)[C@@H]3O)[C@@H](O)[C@H]2O)c1 [NAD^+]
- % of input RNA converted to 2′-OH product (RslTpt1): 4%

Compound: Nc1ncnc2c1ncn2[C@@H]1O[C@H](COP(=O)(O)OP(=O)(O)OC[C@H]2O[C@H](OP(=O)(O)O)[C@H](O)[C@@H]2O)[C@@H](O)[C@H]1O [ADP-ribose-1″-phosphate]
- X-ray crystal structure, 1.55 Å (CthTpt1 [2]): ADP-ribose-1″-phosphate was bound to the NAD^+ lobe
- X-ray crystal structure, 1.4 Å (CthTpt1 [1]; NAD+ site (C-terminal lobe), CoA also bound): The molecule associated with the C-terminal lobe was unambiguously modeled as ADP-ribose-1″-phosphate

Source: PMC6333775, “Structure of tRNA splicing enzyme Tpt1 illuminates the mechanism of RNA 2′-PO4 recognition and ADP-ribosylation” (Nature Communications, 2019)
